Source: article PMC12169608, “Peptidomimetic Phenoxymethyl Ketone Warheads as Potent Dual-Mode Inhibitors against SARS-CoV‑2 M^pro and Cathepsin” (Journal of Medicinal Chemistry, 2025)

What was measured:
SARS-CoV-2 M^pro = SARS-CoV-2 M^pro (Severe acute respiratory syndrome coronavirus 2, UniProt P0DTD1); assay: biochemical; type: biochemical
[1] = biological target: T1, human cathepsin L (hCTSL) (Homo sapiens, UniProt P07711); assay: hCTSL biochemical assay
T1 construct: purchased R&D Systems

[2] = biological target: human cathepsin B (hCTSB) (Homo sapiens, UniProt P07858); assay: hCTSB biochemical assay
[3] = biological target: mouse cathepsin L (mCTSL) (Mus musculus, UniProt P06797); assay: mCTSL biochemical assay
Chain of mouse cathepsin L (mCTSL) (P06797 114-334): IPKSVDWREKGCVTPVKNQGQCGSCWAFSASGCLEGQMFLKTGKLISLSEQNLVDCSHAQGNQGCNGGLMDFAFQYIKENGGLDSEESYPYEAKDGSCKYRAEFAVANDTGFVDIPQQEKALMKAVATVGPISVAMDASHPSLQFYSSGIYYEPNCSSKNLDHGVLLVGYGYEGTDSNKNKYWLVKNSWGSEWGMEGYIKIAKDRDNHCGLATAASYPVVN

[4] = biological target: mouse cathepsin B (mCTSB) (Mus musculus, UniProt P10605); assay: mCTSB biochemical assay
Chain of mouse cathepsin B (mCTSB) (P10605 80-339): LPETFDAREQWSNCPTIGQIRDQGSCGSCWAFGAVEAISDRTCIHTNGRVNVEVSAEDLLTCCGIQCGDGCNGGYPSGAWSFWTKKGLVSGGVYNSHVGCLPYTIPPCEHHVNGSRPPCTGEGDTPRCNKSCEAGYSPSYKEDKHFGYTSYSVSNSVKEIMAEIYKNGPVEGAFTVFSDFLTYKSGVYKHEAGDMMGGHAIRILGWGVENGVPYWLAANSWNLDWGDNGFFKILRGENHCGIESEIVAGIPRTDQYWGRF

[5] = biological target: luciferase-expressing VSV (ΔG) pseudotyped with Spike from SARS-CoV-2; assay: microbe, parasite or virus in culture; type: cell-based
[6] = pH 7.4
Kinetic solubility = conditions: PBS buffer pH 7.4
[7] = Mouse hepatocyte stability
[8] = Plasma protein binding (ultra-centrifugation)

T1 sequence (P07711 114-333): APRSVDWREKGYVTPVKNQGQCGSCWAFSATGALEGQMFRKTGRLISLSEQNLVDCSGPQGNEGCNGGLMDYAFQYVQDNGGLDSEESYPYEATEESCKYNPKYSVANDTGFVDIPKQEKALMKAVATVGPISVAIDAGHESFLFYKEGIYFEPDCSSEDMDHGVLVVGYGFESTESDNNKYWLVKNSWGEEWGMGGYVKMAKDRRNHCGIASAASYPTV

## N-((S)-3-(3-Fluorophenyl)-1-oxo-1-(((S)-2-oxo-5-(5-oxo-1,5-dihydro-4H-1,2,4-triazol-4-yl)-1-(2,3,5,6-tetrafluoro-4-(2-hydroxypropan-2-yl)phenoxy)pentan-3-yl)amino)propan-2-yl)-4-methoxy-1H-indole-2-carboxamide [compound 12]
SARS-CoV-2 M^pro
  M^pro biochemical assay pIC50: 6.75
[1]
  hCTSL biochemical assay pIC50: 9.48
  selectivity for hCTSL over M^pro: more than 500 fold
[2]
  hCTSB biochemical assay pIC50: 6.65
[3]
  pIC50 (mouse CTSL): 7.66
[4]
  pIC50 (mouse CTSB): > 8.16
[5]
  Entry reporter assay pEC50: 5.14
Vero E6 cells
  pCC50 (CPE), cytotoxicity: < 5.00
[6]
  logD: 2.88
Kinetic solubility
  kinetic solubility: 5.84 µM
[7]; compound/ritonavir 4:1
  CLint (mouse hepatocytes + ritonavir 4:1): 37.1 μL/min/10^6 cells
  t1/2 (mouse hepatocytes + ritonavir 4:1): 46.7 min
[7]; without ritonavir
  CLint (mouse hepatocytes): 76.8 μL/min/10^6 cells
  t1/2 (mouse hepatocytes): 22.6 min
[8]
  mouse plasma protein binding, fraction bound (Fb): 99.69%
  mouse plasma protein binding, fraction unbound (Fu): 0.31%
